This note sets out measurements from patent US20110028719A1, “SCREENING METHODS FOR AMYLOID BETA MODULATORS” (priority 2006, published 2011).

Counter-ions that a name gives are not always drawn.

For this test, the target named is immobilized Aβ fibrils (Homo sapiens, UniProt P05067). Kind of test: FAC-MS assay of free Aβ monomer (indicator) binding to immobilized Aβ fibrils in the presence of test compounds. The conditions noted are these: for Aβ Shift: FAC-MS screen, shift of free Aβ monomer breakthrough on immobilized Aβ fibrils in presence of compound, scale not given; for % of Shift: FAC-MS % shift of breakthrough time of free Aβ1-42 monomer (1 μM) on immobilized Aβ fibrils, compounds 1-10 μM in 20 mM NH4OAc, 1% DMSO, void marker M3.
immobilized Aβ fibrils, sequence (P05067 672-713 limits assumed): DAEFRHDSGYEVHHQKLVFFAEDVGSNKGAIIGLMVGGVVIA

Regarding `CC1CCC(C(C)C)C(OCC(O)CN2CCOCC2)C1` (stereo not shown), the “Aβ Shift” value came out at 1. Turning to `CCCC1CCC(c2ccc(C(C)=O)cc2)CC1C` (stereo not shown), the “Aβ Shift” value was 1. Regarding `O=C(O)C1(O)CC(O)C(O)C(O)C1` (stereo not shown), the “Aβ Shift” value was 1. As to `CC1CCC(C(C)C)C(OC(=O)CCc2ccccc2)C1` (stereo not shown), the “Aβ Shift” value is 1. On to `CC1C2CC3(C)CC1(C)CC(C1(C)CC(=O)O1)(C2)C3` (stereo not shown), for which the “Aβ Shift” value worked out at 1. For `C/C(=N\O)C(=O)OC1CC(C)CCC1C(C)C` (stereo not shown), the “Aβ Shift” value was 1.

As to `CC12CC3CC(C)(C1)CC(CNC(=O)c1ccccc1)(C3)C2`, the “Aβ Shift” value worked out at 1. The same measure, in the same setting: the value for `CC12CC3(C)CC(C)(C1)CC(C(N)=O)(C2)C3` was 1; that for `COC(=O)C12CC3CC(C)(CC(C)(C3)C1)C2` was 1. On the same count and under the same terms, the value for `CC12CC3CC(C)(C1)CC(C(=O)NO)(C3)C2` was 1.

On to `CC12CC3CC(CO)(C1)CC(c1ccccc1)(C3)C2` (stereo not shown), for which the “Aβ Shift” value is 1. On the same count and under the same terms, next, `CC12CC3CC(C)(C1)CC(C(N)=O)(C3)C2`: 1; `CC12CC3CC(C)(C1)CC(C(=O)NNC(N)=O)(C3)C2`: 1; `COC(=O)C12CC3(C)CC(C)(CC(C)(C3)C1)C2`: 1. On the same count and under the same terms, the value for `CN(C)C(=O)C12CC3(C)CC(C)(CC(C)(C3)C1)C2` was 1; that for `CC(=O)NC12CC3(C)CC(C)(C1)CC(NC(C)=O)(C3)C2` was 1. Still for that read-out and setting: next, `CC(=O)NC12CC3CC(C)(C1)CC(NC(C)=O)(C3)C2`: 1; `CCC12CC3CC(O)(C1)CC(C(=O)O)(C3)C2` (stereo not shown): 1. Take `CC12CC3CC(C)(C1)CC(C(=O)CCC(=O)O)(C3)C2`: the “Aβ Shift” value came to 1.

For the compound `CC(=O)NC12CC3(C)CC(C)(CC(O)(C3)C1)C2`, the “Aβ Shift” value amounted to 1. On the same count and under the same terms, next, `CC12CC3CC(O)(C1)CC(C(=O)O)(C3)C2` (stereo not shown): 1.

For `CCN1CCC(NC2CCCC(C)C2C)CC1` (stereo not shown), the “Aβ Shift” value worked out at 1.

On to `CC(CCc1ccc(O)cc1)NC1CCCC(C)C1C` (stereo not shown), for which the “Aβ Shift” value is 1.

Take `CC12CC3CC(C)(C1)CC(C(=O)Nc1nnn[nH]1)(C3)C2`: the “Aβ Shift” value is listed as 1. On to `Cc1ccc(C(C)(C)CC(C)NC2CCCC(C)C2C)o1` (stereo not shown), for which the “Aβ Shift” value stood at 1. With `Cc1cc(NC(=O)C23CC4CC(C)(CC(C)(C4)C2)C3)no1`, the “Aβ Shift” value came out at 1. With `CC12CC3CC(C)(C1)CC(C(=O)NC(C)(C)CO)(C3)C2`, the “Aβ Shift” value amounted to 1. For `CC12CC3CC(C)(C1)CC(C(=O)Nc1nccs1)(C3)C2`, the “Aβ Shift” value turned out to be 1.

As for `C=CCNC(=O)C12CC3(C)CC(C)(CC(C)(C3)C1)C2`, the “Aβ Shift” value is given as 1. As for `CC12CC3(C)CC(C)(C1)CC(C(=O)NC(C)(C)CO)(C2)C3`, the “Aβ Shift” value amounted to 1. For `CC(=O)c1[nH]c(C)c(C(=O)NC2CCCC(C)C2C)c1C` (stereo not shown), the “Aβ Shift” value came to 1. The same measure, in the same setting: next, `CC1CCCC(n2c(=S)[nH]c3ccccc3c2=O)C1C` (stereo not shown): 1; `CC1CCCC(n2cnc3cc(C(=O)O)ccc32)C1C` (stereo not shown): 1; `CC1CCCC(NC(=O)c2cc3c(s2)CSC3)C1C` (stereo not shown): 1. In the case of `Cc1cc(C(=O)NC2CCCC(C)C2C)c2ccccc2n1` (stereo not shown), the “Aβ Shift” value worked out at 1.

For `CC1CCCC(NC(=O)c2ccccc2C(=O)O)C1C` (stereo not shown), the “Aβ Shift” value stood at 2. Turning to `CCC1CC2(C(=O)NCc3ccco3)CC3(C)CC3(C1)C2` (stereo not shown), the “Aβ Shift” value stood at 1. Take `Nc1ncnc2c1ncn2C1CCC(CO)C(O)C1` (stereo not shown): the “Aβ Shift” value worked out at 1. On the same count and under the same terms, next, `COC(=O)C1(C)CC2(C)CC(C)(C1)C(=O)N(C)C2=O` (stereo not shown): 1; `CC1CCC(C(C)C)C(OC(=O)CSC#N)C1` (stereo not shown): 1.

Regarding “1,2,5,6-bis-O-(1-Methylethyldene)-3-methyl-1D-chiro-inositol [Compound 53234-7, reference compound]”, the “% of Shift” value is 4%. Same read-out and setting: next, `COC1C(O)C2OC3(CCCCC3)OC2C2OC3(CCCCC3)OC12` (racemic) [Compound 53226-6, 1,2,3,4-DL-O-cyclohexyldene-5-O-methyl-L-chiro-inositol, reference compound]: 2%. As to `O[C@H]1[C@H](O)[C@@H](O)[C@H](O)[C@@H](O)[C@@H]1O` [AZD-103, scyllo-inositol, reference compound], the “% of Shift” value is reported as 84%. Also, under “pretreatment of column with 1 to 10 μM, FIG. 5”, the “effect of pretreatment of immobilized Aβ aggregates” value is “prevents binding and/or breaks down of Aβ fibrils”. As to `OC1C(O)C(O)C(O)C(O)C1O` (stereo not shown) [Chiro, chiro-inositol, reference compound], the “% of Shift” value is recorded as 2%. The same measure, in the same setting: the value for `[H]/N=C(/N)N[C@H]1[C@H](O)[C@@H](O)[C@H](O[C@@H]2O[C@@H](C)[C@](O)(C=O)[C@H]2O[C@@H]2O[C@@H](CO)[C@H](O)[C@@H](O)[C@@H]2NC)[C@@H](N/C(N)=N\[H])[C@@H]1O` [Compound 56501, Streptomycin sulfate, reference compound] was 1%.

Turning to `O=C(O)[C@]1(O)C[C@@H](O)[C@@H](O)[C@H](O)C1` [Compound 138622, 1R,3R,4R,5R-Quinic acid, reference compound], the “% of Shift” value was found to be 3%. On the same count and under the same terms, next, `CC(C)C(=O)OC1C(O)C(OC(=O)C(C)C)C(OC(=O)C(C)C)C(OC(=O)C(C)C)C1OC(=O)C(C)C` (stereo not shown) [Compound 37387001, 2-hydroxy-3,4,5,6-tetrakis(isobutyryloxy)cyclohexyl 2-methylpropanoate]: 4%; `CC(C)(C)C(=O)OC1C(O)C(OC(=O)C(C)(C)C)C(OC(=O)C(C)(C)C)C(OC(=O)C(C)(C)C)C1OC(=O)C(C)(C)C` (stereo not shown) [Compound 37387002, 2,3,4,5-tetrakis[(2,2-dimethylpropanoyl)oxy]-6-hydroxycyclohexyl pivalate]: 5%; `CC(=O)OC1C(OC(=O)C(C)(C)C)C(OC(=O)C(C)(C)C)C(OC(C)=O)C(OC(=O)C(C)(C)C)C1OC(=O)C(C)(C)C` (stereo not shown) [Compound 37387004, 2,5-bis(acetoxy)-3,4,6-tris[(2,2-dimethylpropanoyl)oxy]cyclohexyl pivalate]: 4%.

Consider `CCC(=O)OC1C(OC(=O)CC)C(OC(=O)CC)C(OC(=O)CC)C(OC(=O)CC)C1OC(=O)CC` (stereo not shown) [Compound 37387006, 2,3,4,5,6-pentakis(propionyloxy)cyclohexyl propionate], for which the “% of Shift” value turned out to be 4%.

For the compound `CC(C)C(=O)OC1C(OC(=O)C(C)C)C(OC(=O)C(C)C)C(OC(=O)C(C)C)C(OC(=O)C(C)C)C1OC(=O)C(C)C` (stereo not shown) [Compound 37387007, 2,3,4,5,6-pentakis(isobutyryloxy)cyclohexyl 2-methylproanoate], the “% of Shift” value was determined as 5%. As for `CC(C)(C)C(=O)OC1C(OC(=O)C(C)(C)C)C(OC(=O)C(C)(C)C)C(OC(=O)C(C)(C)C)C(OC(=O)C(C)(C)C)C1OC(=O)C(C)(C)C` (stereo not shown) [Compound 37387008, 2,3,4,5,6-pentakis[(2,2-dimethylpropanoyl)oxy]cyclohexyl pivalate], the “% of Shift” value was determined as 4%. In the case of `CC(C)CC(=O)OC1C(O)C(OC(=O)CC(C)C)C(OC(=O)CC(C)C)C(OC(=O)CC(C)C)C1OC(=O)CC(C)C` (stereo not shown) [Compound 37387009, 2-hydroxy-3-4,5,6-tetrakis[(3-methylbutanoyl)oxo]cyclohexyl 3-methylbutanoate], the “% of Shift” value turned out to be 2%. For the compound `O=C(OC1C(O)C(OC(=O)c2ccccc2)C(OC(=O)c2ccccc2)C(OC(=O)c2ccccc2)C1OC(=O)c1ccccc1)c1ccccc1` (stereo not shown) [Compound 37387010, 2,3,5,6-tatrakis(benzoyloxy)-4-hydroxycyclohexyl benzoate], the “% of Shift” value is on record as 2%.

In the case of `CC(=O)OC1C(OC(=O)CC(C)C)C(OC(=O)CC(C)C)C(OC(=O)CC(C)C)C(OC(=O)CC(C)C)C1OC(=O)CC(C)C` (stereo not shown) [Compound 37387013, 2-(acetyloxy)-3,4,5,6-tetrakis[(3-methylbutanoyl)oxy]cyclohexanyl 3-methylbutanoate], the “% of Shift” value stood at 3%. On the same count and under the same terms, the value for `OC1[C@@H](O)[C@H](O)C(O[C@H]2OC[C@H](O)[C@H](O)[C@H]2O)[C@H](O)[C@H]1O` (stereo partly drawn) [Compound A-9826, 2-O-b-L-Arabinopyranosyl myo-inositol, reference compound] was 3%; that for `O[C@H]1[C@H](O)[C@@H](O)[C@@H]2O[C@@H]2[C@@H]1O` [Compound C5424, Conduritol B epoxide, reference compound] was 1%. Consider `O=C(/C=C/c1ccc(O)c(O)c1)O[C@@H]1C[C@](O)(C(=O)O)C[C@@H](O)[C@H]1O` [Compound C-3878, Chlorogenic acid, reference compound], for which the “% of Shift” value amounted to 2%. On the same count and under the same terms, next, `O=P(O)(O)O[C@@H]1C(O)[C@@H](OP(=O)(O)O)[C@@H](O)C(O)[C@H]1O` (stereo partly drawn) [Compound I-3139, D-Myo-inositol-2,4-bis-phosphate, reference compound]: 12%; `O=S(=O)([O-])OC1C(OS(=O)(=O)[O-])C(OS(=O)(=O)[O-])C(OS(=O)(=O)[O-])C(OS(=O)(=O)[O-])C1OS(=O)(=O)[O-].[K+].[K+].[K+].[K+].[K+].[K+]` (stereo not shown) [Compound I-6005, myo-inositol hexasulfate hexapotasium, reference compound]: 4%.

Regarding `C[C@H]1O[C@H](OC2[C@@H](O)[C@@H](O)C(O)[C@H](O)[C@H]2O)[C@@H](N)C[C@@H]1N=C(N)C(=O)O.Cl` (stereo partly shown) [Compound K413, Kasugamycin hydrochloride, reference compound], the “% of Shift” value amounted to 2%. On to `O=P(O)(O)O[C@H]1[C@H](OP(=O)(O)O)[C@@H](OP(=O)(O)O)[C@H](OP(=O)(O)O)[C@@H](OP(=O)(O)O)[C@H]1OP(=O)(O)O` [Compound P-3168, Phytic acid, reference compound], for which the “% of Shift” value was 2%. Take `CO[C@H]1[C@H](O)[C@@H](O)[C@@H](O)[C@H](O)[C@@H]1O` [D-Pinitol, D-pinitol, reference compound]: the “% of Shift” value turned out to be 3%.
